Patent US20080293090A1, “AUTOMATED SEMI-SOLID MATRIX ASSAY AND LIQUID HANDLER APPARATUS FOR THE SAME” (AVENTIS PHARMACEUTICALS INC., priority 2001, published 2008)
Where a name gives a salt, the structure may show the parent alone.

What was measured:
Type in all cases: cell-based
tumor cells [1] = test: Soft agar assay, hand-pipetted 24-well plates, Calcein AM stained method
Protocol: (§1) 25 μL of 10 μM calcein AM (in HBSS) is added to each well and allowed to incubate at 37 deg. C. for at least one hour. […] The fluorescence for calcein AM (after cleavage in live cells) is excitation=485+20 nm and emission=530+20 nm. For analysis, the data provided by the CytoFluor™ are analyzed in EXCEL™. The DMSO control wells are averaged and the standard deviation determined. Each compound well is then divided by the control average×100 for % control. The triplicate wells are averaged and the standard deviation determined. There is some background fluorescence and the colonies treated after formation are not eliminated by the single two-week treatment. The background can be subtracted from each well. Statistical programs such as PRISM could also be used for the graphing and IC50 determination. […] As a comparison, the same compounds were tested in the traditional hand-pipetted, 24-well plates, visually counted method. The only difference was that the soft agar assay used a 500 μL agarose layer in the 24-well plate and 75 uL/layer in the 96-well system, using the Sigma agarose. The two methods produced similar results, i.e. IC50s for the compounds, see Table 4.

tumor cells [2] = test: Automated soft agar assay, 96-well plates, Calcein AM stained method; details: read-out: IC50s (μM) with Flavopiridol 96-well
Protocol: as §1, with “It was determined that when plating with the test compound, the individual components, i.e., agarose, cells and compound, were more evenly distributed if premixed in a separate plate before being transferred to the 96-well plate. The test compounds were made 10× in RPMI GM, which was diluted to a 1× compound concentration in the mixing plate. […] Satisfactory results were obtained with the following combinations: 25” for “25”

tumor cells [3] = test: Traditional soft agar assay, 24-well tray, visual counting of colonies; details: for IC50: read-out: IC50s Determined from Colony Counting; for Average # of colonies: 24-well tray
Protocol: As a comparison, the same compounds were tested in the traditional hand-pipetted, 24-well plates, visually counted method. The only difference was that the soft agar assay used a 500 μL agarose layer in the 24-well plate and 75 uL/layer in the 96-well system, using the Sigma agarose. The 24-well plates were also counted visually, Table 5, and the IC50s determined, Table 6.

Colo 205 = test: Soft agar assay, flavopiridol on already formed one week colonies; details: Homo sapiens, 168 h, added to colonies formed after 7 days of incubation, read-out: Flavopiridol IC50 (uM) on Formed Colonies, Average ± Standard Error
Protocol: (§2) 25 μL of 10 μM calcein AM (in HBSS) is added to each well and allowed to incubate at 37 deg. C. for at least one hour. The plate is then read in a Cytofluor™ 4000 (3 counts/well) with a gain of 40. The fluorescence for calcein AM (after cleavage in live cells) is excitation=485+20 nm and emission=530+20 nm.
(§3) For analysis, the data provided by the CytoFluor™ are analyzed in EXCEL™. The DMSO control wells are averaged and the standard deviation determined. Each compound well is then divided by the control average×100 for % control. The triplicate wells are averaged and the standard deviation determined. […] The background can be subtracted from each well. Statistical programs such as PRISM could also be used for the graphing and IC50 determination.
(§4) Flavopiridol is added to colonies formed after 7 days of incubation at 37 deg.

MDA-MB435 = test: as above; details: Homo sapiens, MDA-MB-435, 168 h, added to colonies formed after 7 days of incubation, read-out: Flavopiridol IC50 (uM) on Formed Colonies, Average ± Standard Error
Protocol: as §2, §3, §4

HL-60 = test: as above; details: Homo sapiens, 168 h, added to colonies formed after 7 days of incubation, read-out: Flavopiridol IC50 (uM) on Formed Colonies, Average ± Standard Error
Protocol: as §2
(§5) For analysis, the data provided by the CytoFluor™ are analyzed in EXCEL™. The DMSO control wells are averaged and the standard deviation determined. Each compound well is then divided by the control average×100 for % control. The triplicate wells are averaged and the standard deviation determined. There is some background fluorescence and the colonies treated after formation are not eliminated by the single two-week treatment. The background can be subtracted from each well. Statistical programs such as PRISM could also be used for the graphing and IC50 determination.
(§6) Table 7. provides the IC50 in micromolar values obtained using flavopiridol on already formed colonies of a number of different cell lines (one week colonies). Flavopiridol is added to colonies formed after 7 days of incubation at […]. This method of adding compounds to already formed colonies may be more predictive for the compound's effectiveness against a tumor in vivo.

NCI-H460 = test: as above; details: Homo sapiens, 168 h, added to colonies formed after 7 days of incubation, read-out: Flavopiridol IC50 (uM) on Formed Colonies, Average ± Standard Error
Protocol: as §2, §5, §6

PC-3 = test: as above; details: Homo sapiens, 168 h, added to colonies formed after 7 days of incubation, read-out: Flavopiridol IC50 (uM) on Formed Colonies, Average ± Standard Error
Protocol: as §2, §5, §6

[4] = flavopiridol added immediately after plating

Question: What does the source list for CN1CC[C@H](c2c(O)cc(O)c3c(=O)cc(-c4ccccc4Cl)oc23)[C@H](O)C1 [Flavopiridol, (cis-(−)-5,7-Dihydroxy-2-(2-chlorophenyl)-8-[4-(3-hydroxy-1-methyl)piperidinyl]-4H-1-benzopyran-4-one hydrochloride dihydrate]?
Answer: IC50 (tumor cells [1]; cells plated with flavopiridol): 0.08 µM; IC50 (tumor cells [1]; [4]): 0.4 µM; IC50 (tumor cells [2]; 168 h, flavopiridol added to one week colonies): 1 µM; IC50 (tumor cells [2]; cells plated with flavopiridol): 0.15 µM; IC50 (tumor cells [2]; [4]): 0.6 µM; IC50 (tumor cells [3]; added immediately after plating, 24-well, visual counting): 400 nM; IC50s Determined from Colony Counting (tumor cells [3]; added to 1-week colonies, 24-well, visual counting): did not reach 50% control.; Average # of colonies (tumor cells [3]; flavopiridol added immediately after plating, 0.00032 μM): 30; Average # of colonies (tumor cells [3]; flavopiridol added immediately after plating, 0.0016 μM): 30; Average # of colonies (tumor cells [3]; flavopiridol added immediately after plating, 0.008 μM): 32; Average # of colonies (tumor cells [3]; flavopiridol added immediately after plating, 0.04 μM): 26; Average # of colonies (tumor cells [3]; flavopiridol added immediately after plating, 0.2 μM): 27; Average # of colonies (tumor cells [3]; flavopiridol added immediately after plating, 1 μM): 0; Average # of colonies (tumor cells [3]; flavopiridol added immediately after plating, 5 μM): 0; Average # of colonies (tumor cells [3]; flavopiridol added to one-week colonies, 0.0032 μM): 34.0; Average # of colonies (tumor cells [3]; flavopiridol added to one-week colonies, 0.016 μM): 35.0; Average # of colonies (tumor cells [3]; flavopiridol added to one-week colonies, 0.08 μM): 32.0; Average # of colonies (tumor cells [3]; flavopiridol added to one-week colonies, 0.4 μM): 33; Average # of colonies (tumor cells [3]; flavopiridol added to one-week colonies, 2 μM): 25; Average # of colonies (tumor cells [3]; flavopiridol added to one-week colonies, 10 μM): 32; Average # of colonies (tumor cells [3]; flavopiridol added to one-week colonies, 50 μM): 20; IC50 (tumor cells [3]; plated with Flavo, 24-well, visual counting): 90 nM; Average # of colonies (tumor cells [3]; plated with flavopiridol, 0.00032 μM): 27; Average # of colonies (tumor cells [3]; plated with flavopiridol, 0.0016 μM): 25; Average # of colonies (tumor cells [3]; plated with flavopiridol, 0.008 μM): 22; Average # of colonies (tumor cells [3]; plated with flavopiridol, 0.04 μM): 25; Average # of colonies (tumor cells [3]; plated with flavopiridol, 0.2 μM): 0; Average # of colonies (tumor cells [3]; plated with flavopiridol, 1 μM): 0; Average # of colonies (tumor cells [3]; plated with flavopiridol, 5 μM): 0; IC50 (Colo 205): 1.4 ± 0.06 µM; IC50 (MDA-MB435): 2.2 ± 0.09 µM; IC50 (HL-60): 1.6 ± 0.15 µM; IC50 (NCI-H460): 2.4 ± 0.1 µM; IC50 (PC-3): 1.7 ± 0.04 µM
